Experimental data from patent US20240009172A1, “COMPOSTIONS AND METHODS FOR TREATING PROSTATE CANCER” (The Regents of the University of Michigan, priority 2022, published 2024).

What was measured:
[1] = test system: metastatic, castration-resistant prostate cancer; experiment: Enzalutamide treatment of WCDT patients with matched biopsies: PSA response and time on treatment; assay type: in vivo, human; parameters: PSA Change at 12 weeks: unit not given here
Description: (§1) Methods for tissue collection have been described previously 48.
By examining the Stand Up to Cancer Foundation/Prostate Cancer Foundation West Coast Dream Team (WCDT) prospective cohort, 21 patients with CRPC who underwent a metastatic tumor biopsy prior to enza and a repeat biopsy at the time of progression and whose tumor cells underwent RNA-sequencing after laser capture microdissection were identified. All progression biopsies were performed prior to discontinuing enza, enabling one to identify resistance mechanisms induced by continued enza treatment.
Bone was the most common site for both pre-treatment and progression biopsies. Eighteen of 21 patients had the same tissue type biopsied at progression. In eight patients, the exact same lesion was biopsied at baseline and progression (FIG. 1B, Table 3). The median time on enza treatment was 226 days.

[2] = test system: CRPC tumor biopsy transcriptome; experiment: RNA-sequencing differential gene expression (DESeq2), progression versus baseline in converters; parameters: species or system human; details: progression vs baseline samples from the three converters
Description: as §1
Core biopsy samples were flash frozen in Optical Cutting Temperature (OCT) for gene expression analysis. Laser capture microdissection was performed on frozen sections to enrich for tumor content 49. Total RNA was isolated (Stratagene Absolutely RNA Nano Prep) (RIN>8) and amplified using NuGEN Ovation RNA seq System V2. Libraries were generated using NuGEN Ovation Ultralow System V2 for Illumina sequencing. RNA seq was performed on the Illumina NextSeq 500, PE75 with at least 100M read pairs. The raw fastq files were first quality checked using FastQC (version 0.11.8) software (http://www.bioinformatics.bbsrc.ac.uk/projects/fastqc/). Fastq files were aligned to hg38 human reference genome and per-gene counts and transcripts per million (TPM) quantified by RSEM 50 (version 1.3.1) based on the gene annotation gencode.v28.annotation.gtf.
Differential expression gene, pathway, and master regulator analysis Differential gene expression analysis was performed using DESeq2 (version 1.22.2). Gene expression differences were considered significant if passing the following criteria: adjusted P-value <0.05, absolute fold change >1.5. For the converter vs non-converter baseline sample comparison, we used the adjusted P-value <0.1. […]

CRPC tumors = experiment: Aggarwal cluster designation and Labrecque classification of progression tumors (lineage plasticity); parameters: species or system human; details: 3/21 progression tumors (Aggarwal cluster 2, DNPC by Labrecque)
Description: The unsupervised analysis from Aggarwal, et al. 25 identified five clusters using 119 samples. That study identified 528 genes that were the most differentially expressed between the clusters. Using that gene list, cluster assignments for new samples included in this matched biopsy cohort were determined without replicating the unsupervised analysis. First, the sample batch effect between the samples from the previous study and those from the current study was addressed with exponential normalization on the expression data of all samples—old and new. Exponential normalization is a per-sample operation that fits the expression of all genes to a unit exponential distribution. […]
To determine the Labrecque classification, a 26 gene signature used previously to define five phenotypic categories of CRPC 24 was applied: AR-high prostate cancer (ARPC), amphicrine prostate cancer, AR-low prostate cancer (ARLPC), double-negative prostate cancer (DNPC), and neuroendocrine prostate cancer (NEPC) 24. […] Samples were assigned to the phenotype groups by clustering using Euclidean distance calculated by the dist function and visualization using classical multidimensional scaling (MDS) calculated with the cmdscale function in R using the log2(TPM+1) transformed expression profiles of the remaining 25 genes.

CNC(=O)c1ccc(N2C(=S)N(c3ccc(C#N)c(C(F)(F)F)c3)C(=O)C2(C)C)cc1F [enzalutamide]
median time on enza treatment ([1]; 21 patients): 226 days | Median time on enzalutamide, days (SD) ([1]; Table 2, n = 21 patients): 261 days | 50% PSA response to enzalutamide ([1]; number of patients, n = 21): 7 | PSA Change at 12 weeks ([1]; patient DTB_024): 75.05 | PSA Change at 12 weeks ([1]; patient DTB_060): −20.41 | PSA Change at 12 weeks ([1]; patient DTB_063): −74.64 | PSA Change at 12 weeks ([1]; patient DTB_073): 156.81 | PSA Change at 12 weeks ([1]; patient DTB_080): −28.48 | PSA Change at 12 weeks ([1]; patient DTB_089): 181.18 | PSA Change at 12 weeks ([1]; patient DTB_098): −83.74 | PSA Change at 12 weeks ([1]; patient DTB_102): −93.02 | PSA Change at 12 weeks ([1]; patient DTB_111): 113.99 | PSA Change at 12 weeks ([1]; patient DTB_127): 169.29 | PSA Change at 12 weeks ([1]; patient DTB_135): 164.26 | PSA Change at 12 weeks ([1]; patient DTB_137): −10.85 | PSA Change at 12 weeks ([1]; patient DTB_141): −81.04 | PSA Change at 12 weeks ([1]; patient DTB_149): −80.29 | PSA Change at 12 weeks ([1]; patient DTB_167): −88.38 | PSA Change at 12 weeks ([1]; patient DTB_176): −64.76 | PSA Change at 12 weeks ([1]; patient DTB_194): 100.36 | PSA Change at 12 weeks ([1]; patient DTB_210): −83.36 | PSA Change at 12 weeks ([1]; patient DTB_232): −0.55 | PSA Change at 12 weeks ([1]; patient DTB_265): 5.84 | expression of AR, AR target genes (KLK2, KLK3, TMPRSS2) and HOXB13 [2]: markedly decreased expression | enza-induced lineage plasticity and conversion to an AR-independent program, frequency of tumors (CRPC tumors): 14%
